# Assay results published in US9969694B2, “N-(arylalkyl)-N′-pyrazolyl-urea, thiourea, guanidine and cyanoguanidine compounds as TrkA kinase inhibitors” (Array BioPharma Inc., priority 2012, dated 2018).
# Tests used:
# Experiment in all cases: Off-Target Kinase Profiling
# Assay type in all cases: biochemical
# Conditions in all cases: 10 μM; ATP near Km
# [1] = target: T1, DAPK3 (Homo sapiens, UniProt O43293)
# T1 construct: purchased Millipore, Inc. (KinaseProfiler service)
# Experimental: (§1) Representative compounds of the invention (Examples 33 and 10) were tested for off-target kinase activity at a concentration of 10 μM by Millipore, Inc. in their KinaseProfiler™ service against all the kinases available in their full kinase panel. Compounds were run in duplicate at a concentration of ATP near the Km for each individual kinase according to Millipore's specifications. The results are shown in Table B. Data are reported as percent of control (POC) and are the average of the two replicates.
# [2] = target: T2, p70S6K (Homo sapiens, UniProt P23443)
# T2 construct: purchased Millipore, Inc. (KinaseProfiler service)
# Experimental: as §1
# [3] = target: T3, Pim-2 (Homo sapiens, UniProt Q9P1W9)
# T3 construct: purchased Millipore, Inc. (KinaseProfiler service)
# Experimental: as §1
# [4] = target: T4, BLK_m (Mus musculus, UniProt P16277)
# T4 construct: purchased Millipore (KinaseProfiler service)
# Experimental: as §1
# [5] = target: T5, NEK3 (Homo sapiens, UniProt P51956)
# T5 construct: purchased Millipore, Inc. (KinaseProfiler service)
# Experimental: as §1
# [6] = target: T6, JNK2alpha2 (Homo sapiens, UniProt P45984)
# T6 construct: purchased Millipore, Inc. (KinaseProfiler service)
# Experimental: as §1
# [7] = target: T7, PKCiota (Homo sapiens, UniProt P41743)
# T7 construct: purchased Millipore, Inc. (KinaseProfiler service)
# Experimental: as §1
# [8] = target: T8, PTK6 (Homo sapiens, UniProt Q13882)
# T8 construct: purchased Millipore, Inc. (KinaseProfiler service)
# Experimental: as §1
# [9] = target: T9, DMPK (Homo sapiens, UniProt Q09013)
# T9 construct: purchased Millipore, Inc. (KinaseProfiler service)
# Experimental: as §1
# [10] = target: T10, EphA3 (Homo sapiens, UniProt P29320)
# T10 construct: purchased Millipore, Inc. (KinaseProfiler service)
# Experimental: as §1
# [11] = target: T11, PRKG1beta (Homo sapiens, UniProt Q13976)
# T11 construct: purchased Millipore, Inc. (KinaseProfiler service)
# Experimental: as §1
# [12] = target: T12, PAK4 (Homo sapiens, UniProt O96013)
# T12 construct: purchased Millipore, Inc. (KinaseProfiler service)
# Experimental: as §1
# [13] = target: T13, JNK3 (Homo sapiens, UniProt P53779)
# T13 construct: purchased Millipore, Inc. (KinaseProfiler service)
# Experimental: as §1
# [14] = target: T14, Flt3 (Homo sapiens, UniProt P36888)
# T14 construct: purchased Millipore, Inc. (KinaseProfiler service)
# Experimental: as §1
# [15] = target: T15, Rsk1 (Homo sapiens, UniProt Q15418)
# T15 construct: purchased Millipore, Inc. (KinaseProfiler service)
# Experimental: as §1
# [16] = target: T16, ALK4 (Homo sapiens, UniProt P36896)
# T16 construct: purchased Millipore (KinaseProfiler service)
# Experimental: as §1
# [17] = target: T17, EGFR (Homo sapiens, UniProt P00533)
# T17 construct: purchased Millipore, Inc. (KinaseProfiler service)
# Experimental: as §1
# [18] = target: T18, SIK (Homo sapiens, UniProt P57059)
# T18 construct: purchased Millipore, Inc. (KinaseProfiler service)
# Experimental: as §1
# [19] = target: T19, ERK2 (Homo sapiens, UniProt P28482)
# T19 construct: purchased Millipore, Inc. (KinaseProfiler service)
# Experimental: as §1
# [20] = target: T20, TAO1 (Homo sapiens, UniProt Q7L7X3)
# T20 construct: purchased Millipore, Inc. (KinaseProfiler service)
# Experimental: as §1
# [21] = target: T21, SGK2 (Homo sapiens, UniProt Q9HBY8)
# T21 construct: purchased Millipore, Inc. (KinaseProfiler service)
# Experimental: as §1
# [22] = target: T22, IRAK1 (Homo sapiens, UniProt P51617)
# T22 construct: purchased Millipore, Inc. (KinaseProfiler service)
# Experimental: as §1
# [23] = target: T23, MSK2 (Homo sapiens, UniProt O75676)
# T23 construct: purchased Millipore, Inc. (KinaseProfiler service)
# Experimental: as §1
# [24] = target: T24, ULK3 (Homo sapiens, UniProt Q6PHR2)
# T24 construct: purchased Millipore, Inc. (KinaseProfiler service)
# Experimental: as §1
# [25] = target: T25, ALK (Homo sapiens, UniProt Q9UM73)
# T25 construct: purchased Millipore (KinaseProfiler service)
# Experimental: as §1
# [26] = target: T26, EphA4 (Homo sapiens, UniProt P54764)
# T26 construct: purchased Millipore, Inc. (KinaseProfiler service)
# Experimental: as §1
# [27] = target: T27, CDK2/cyclinA (Homo sapiens, UniProt P24941)
# T27 construct: purchased Millipore (KinaseProfiler service)
# Experimental: as §1
# [28] = target: T28, CAMK2g (Homo sapiens, UniProt Q13555)
# T28 construct: purchased Millipore (KinaseProfiler service)
# Experimental: as §1
# [29] = target: T29, Syk (Homo sapiens, UniProt P43405)
# T29 construct: purchased Millipore, Inc. (KinaseProfiler service)
# Experimental: as §1
# [30] = target: T30, HIPK3 (Homo sapiens, UniProt Q9H422)
# T30 construct: purchased Millipore, Inc. (KinaseProfiler service)
# Experimental: as §1
# [31] = target: T31, PDGFRbeta (Homo sapiens, UniProt P09619)
# T31 construct: purchased Millipore, Inc. (KinaseProfiler service)
# Experimental: as §1
# [32] = target: T32, Rsk2 (Homo sapiens, UniProt P51812)
# T32 construct: purchased Millipore, Inc. (KinaseProfiler service)
# Experimental: as §1
# [33] = target: T33, MRCKbeta (Homo sapiens, UniProt Q9Y5S2)
# T33 construct: purchased Millipore, Inc. (KinaseProfiler service)
# Experimental: as §1
# [34] = target: T34, NEK7 (Homo sapiens, UniProt Q8TDX7)
# T34 construct: purchased Millipore, Inc. (KinaseProfiler service)
# Experimental: as §1
# [35] = target: T35, BrSK2 (Homo sapiens, UniProt Q8IWQ3)
# T35 construct: purchased Millipore (KinaseProfiler service)
# Experimental: as §1
# [36] = target: T36, NEK6 (Homo sapiens, UniProt Q9HC98)
# T36 construct: purchased Millipore, Inc. (KinaseProfiler service)
# Experimental: as §1
# [37] = target: T37, Plk3 (Homo sapiens, UniProt Q9H4B4)
# T37 construct: purchased Millipore, Inc. (KinaseProfiler service)
# Experimental: as §1
# [38] = target: T38, Flt4 (Homo sapiens, UniProt P35916)
# T38 construct: purchased Millipore, Inc. (KinaseProfiler service)
# Experimental: as §1
# [39] = target: T39, CSK (Homo sapiens, UniProt P41240)
# T39 construct: purchased Millipore, Inc. (KinaseProfiler service)
# Experimental: as §1
# [40] = target: T40, MSSK1 (Homo sapiens, UniProt Q9UPE1)
# T40 construct: purchased Millipore, Inc. (KinaseProfiler service)
# Experimental: as §1
# [41] = target: T41, AKT1 (Homo sapiens, UniProt P31749)
# T41 construct: purchased Millipore (KinaseProfiler service)
# Experimental: as §1
# T39 sequence (P41240 whole entry): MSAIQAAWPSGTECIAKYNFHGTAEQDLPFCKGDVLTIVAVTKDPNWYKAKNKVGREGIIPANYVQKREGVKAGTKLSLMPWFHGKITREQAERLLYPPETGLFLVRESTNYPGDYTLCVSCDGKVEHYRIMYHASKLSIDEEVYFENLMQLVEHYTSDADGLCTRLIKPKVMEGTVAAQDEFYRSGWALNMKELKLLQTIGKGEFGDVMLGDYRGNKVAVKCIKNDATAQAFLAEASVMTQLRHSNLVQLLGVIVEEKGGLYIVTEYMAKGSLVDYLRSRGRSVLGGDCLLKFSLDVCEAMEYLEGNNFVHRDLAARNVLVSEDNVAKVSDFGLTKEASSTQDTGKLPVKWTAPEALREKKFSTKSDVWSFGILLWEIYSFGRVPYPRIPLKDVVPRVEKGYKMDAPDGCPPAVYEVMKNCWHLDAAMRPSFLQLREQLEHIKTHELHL
# T2 sequence (P23443 whole entry): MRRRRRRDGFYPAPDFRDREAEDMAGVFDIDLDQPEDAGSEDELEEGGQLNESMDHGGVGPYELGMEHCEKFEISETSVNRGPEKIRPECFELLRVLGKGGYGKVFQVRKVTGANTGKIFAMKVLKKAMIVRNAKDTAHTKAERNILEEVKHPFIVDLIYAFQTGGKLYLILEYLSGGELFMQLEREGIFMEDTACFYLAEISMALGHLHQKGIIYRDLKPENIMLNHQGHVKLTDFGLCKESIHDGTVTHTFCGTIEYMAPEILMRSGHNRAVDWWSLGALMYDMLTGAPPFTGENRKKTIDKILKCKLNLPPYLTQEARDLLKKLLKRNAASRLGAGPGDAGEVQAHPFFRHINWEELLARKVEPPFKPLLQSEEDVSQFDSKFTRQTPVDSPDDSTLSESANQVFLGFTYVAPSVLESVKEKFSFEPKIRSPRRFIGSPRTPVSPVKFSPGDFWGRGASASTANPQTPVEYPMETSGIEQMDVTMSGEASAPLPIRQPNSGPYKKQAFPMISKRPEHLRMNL
# T30 sequence (Q9H422 whole entry): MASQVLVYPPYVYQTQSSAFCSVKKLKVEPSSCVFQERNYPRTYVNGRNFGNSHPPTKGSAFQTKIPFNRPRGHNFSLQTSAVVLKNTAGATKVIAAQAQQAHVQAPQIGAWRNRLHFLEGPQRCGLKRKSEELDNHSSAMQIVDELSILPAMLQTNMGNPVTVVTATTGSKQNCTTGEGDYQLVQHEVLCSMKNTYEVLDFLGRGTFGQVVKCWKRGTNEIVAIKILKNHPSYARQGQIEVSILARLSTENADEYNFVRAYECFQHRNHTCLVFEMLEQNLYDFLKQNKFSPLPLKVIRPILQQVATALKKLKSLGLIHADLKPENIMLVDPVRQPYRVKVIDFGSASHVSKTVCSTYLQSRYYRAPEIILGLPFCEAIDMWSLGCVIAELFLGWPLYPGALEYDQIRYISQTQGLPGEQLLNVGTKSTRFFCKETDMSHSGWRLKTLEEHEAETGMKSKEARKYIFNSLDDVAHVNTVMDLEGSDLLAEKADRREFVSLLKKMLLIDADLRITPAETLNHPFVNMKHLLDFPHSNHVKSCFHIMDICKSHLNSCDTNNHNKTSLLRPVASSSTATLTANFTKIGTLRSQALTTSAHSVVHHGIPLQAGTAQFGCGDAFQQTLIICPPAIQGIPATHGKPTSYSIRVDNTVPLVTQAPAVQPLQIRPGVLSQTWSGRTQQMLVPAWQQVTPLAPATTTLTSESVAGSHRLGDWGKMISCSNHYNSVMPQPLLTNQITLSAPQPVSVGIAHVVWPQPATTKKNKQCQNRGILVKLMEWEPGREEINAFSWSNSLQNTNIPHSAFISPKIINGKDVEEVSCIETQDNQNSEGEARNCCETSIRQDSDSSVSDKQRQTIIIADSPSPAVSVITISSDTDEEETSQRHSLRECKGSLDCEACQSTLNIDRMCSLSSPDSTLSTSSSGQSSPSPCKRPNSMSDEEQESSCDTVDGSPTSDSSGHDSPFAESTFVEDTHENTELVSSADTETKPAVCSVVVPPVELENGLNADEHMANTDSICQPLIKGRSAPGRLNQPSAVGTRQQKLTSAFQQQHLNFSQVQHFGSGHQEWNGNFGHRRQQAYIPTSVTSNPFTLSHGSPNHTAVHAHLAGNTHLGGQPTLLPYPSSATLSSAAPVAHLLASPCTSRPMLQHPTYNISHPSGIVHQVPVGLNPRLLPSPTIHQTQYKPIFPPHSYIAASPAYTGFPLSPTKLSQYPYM
# T24 sequence (Q6PHR2 whole entry): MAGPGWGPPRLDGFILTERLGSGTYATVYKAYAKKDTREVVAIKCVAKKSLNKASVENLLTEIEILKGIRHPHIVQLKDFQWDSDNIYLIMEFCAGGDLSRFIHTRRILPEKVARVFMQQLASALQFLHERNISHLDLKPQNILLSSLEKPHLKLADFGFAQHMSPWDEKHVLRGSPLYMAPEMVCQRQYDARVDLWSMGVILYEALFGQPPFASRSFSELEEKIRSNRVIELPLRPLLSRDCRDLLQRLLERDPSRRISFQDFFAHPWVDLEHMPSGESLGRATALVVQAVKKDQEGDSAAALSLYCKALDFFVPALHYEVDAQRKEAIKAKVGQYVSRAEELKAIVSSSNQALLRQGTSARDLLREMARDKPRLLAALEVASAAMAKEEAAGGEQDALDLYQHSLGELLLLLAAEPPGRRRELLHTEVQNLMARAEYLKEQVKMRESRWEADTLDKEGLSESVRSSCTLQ
# T20 sequence (Q7L7X3 whole entry): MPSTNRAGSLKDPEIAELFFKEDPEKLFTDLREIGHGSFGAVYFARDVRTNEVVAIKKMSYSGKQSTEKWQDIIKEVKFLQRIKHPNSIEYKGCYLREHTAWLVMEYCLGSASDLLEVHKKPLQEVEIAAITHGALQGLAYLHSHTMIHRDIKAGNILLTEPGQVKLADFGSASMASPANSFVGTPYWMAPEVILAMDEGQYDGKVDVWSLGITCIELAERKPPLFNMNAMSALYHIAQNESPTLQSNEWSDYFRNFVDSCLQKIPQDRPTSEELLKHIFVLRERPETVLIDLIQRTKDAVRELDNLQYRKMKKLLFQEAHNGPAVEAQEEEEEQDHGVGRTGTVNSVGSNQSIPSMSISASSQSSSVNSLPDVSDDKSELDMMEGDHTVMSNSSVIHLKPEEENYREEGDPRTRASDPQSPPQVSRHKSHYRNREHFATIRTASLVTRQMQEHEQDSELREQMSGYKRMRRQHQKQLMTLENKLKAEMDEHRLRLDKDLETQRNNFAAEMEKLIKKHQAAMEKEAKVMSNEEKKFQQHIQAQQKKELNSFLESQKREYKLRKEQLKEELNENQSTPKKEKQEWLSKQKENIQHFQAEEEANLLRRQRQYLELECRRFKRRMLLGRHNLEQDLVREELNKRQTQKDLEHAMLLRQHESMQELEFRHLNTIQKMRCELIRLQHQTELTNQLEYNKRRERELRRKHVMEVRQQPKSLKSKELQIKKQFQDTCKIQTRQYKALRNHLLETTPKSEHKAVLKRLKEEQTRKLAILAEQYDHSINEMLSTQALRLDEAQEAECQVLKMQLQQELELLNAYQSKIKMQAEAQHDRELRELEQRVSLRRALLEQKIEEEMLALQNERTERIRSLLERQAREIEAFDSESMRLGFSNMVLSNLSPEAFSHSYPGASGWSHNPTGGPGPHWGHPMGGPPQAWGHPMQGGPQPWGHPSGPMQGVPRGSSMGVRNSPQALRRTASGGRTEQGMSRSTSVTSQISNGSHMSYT
# T6 sequence (P45984 whole entry): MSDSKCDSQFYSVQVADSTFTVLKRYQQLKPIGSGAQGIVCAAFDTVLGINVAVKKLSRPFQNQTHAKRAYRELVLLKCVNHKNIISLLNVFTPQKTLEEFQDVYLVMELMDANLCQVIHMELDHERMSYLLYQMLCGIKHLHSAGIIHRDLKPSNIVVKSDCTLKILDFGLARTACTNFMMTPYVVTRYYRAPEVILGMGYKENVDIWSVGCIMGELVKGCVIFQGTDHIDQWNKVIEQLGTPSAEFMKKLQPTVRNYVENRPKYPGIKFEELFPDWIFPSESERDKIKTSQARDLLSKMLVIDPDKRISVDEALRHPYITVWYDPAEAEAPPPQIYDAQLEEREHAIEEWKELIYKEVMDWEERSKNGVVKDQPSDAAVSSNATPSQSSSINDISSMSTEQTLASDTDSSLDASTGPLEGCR
# T4 sequence (P16277 whole entry): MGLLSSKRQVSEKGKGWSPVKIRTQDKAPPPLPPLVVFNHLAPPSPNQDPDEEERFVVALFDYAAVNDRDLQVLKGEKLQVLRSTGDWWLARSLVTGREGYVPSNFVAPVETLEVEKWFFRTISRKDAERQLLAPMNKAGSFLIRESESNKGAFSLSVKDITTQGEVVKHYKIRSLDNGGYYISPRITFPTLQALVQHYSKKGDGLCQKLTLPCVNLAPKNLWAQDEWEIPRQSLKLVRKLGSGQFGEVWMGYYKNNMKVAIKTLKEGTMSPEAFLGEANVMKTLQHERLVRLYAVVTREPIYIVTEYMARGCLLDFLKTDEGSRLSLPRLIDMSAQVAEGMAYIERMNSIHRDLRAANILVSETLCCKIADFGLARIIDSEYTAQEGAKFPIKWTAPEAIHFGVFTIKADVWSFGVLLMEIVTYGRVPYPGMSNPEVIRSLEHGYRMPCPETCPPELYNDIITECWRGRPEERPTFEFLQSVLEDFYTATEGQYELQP
# T21 sequence (Q9HBY8 whole entry): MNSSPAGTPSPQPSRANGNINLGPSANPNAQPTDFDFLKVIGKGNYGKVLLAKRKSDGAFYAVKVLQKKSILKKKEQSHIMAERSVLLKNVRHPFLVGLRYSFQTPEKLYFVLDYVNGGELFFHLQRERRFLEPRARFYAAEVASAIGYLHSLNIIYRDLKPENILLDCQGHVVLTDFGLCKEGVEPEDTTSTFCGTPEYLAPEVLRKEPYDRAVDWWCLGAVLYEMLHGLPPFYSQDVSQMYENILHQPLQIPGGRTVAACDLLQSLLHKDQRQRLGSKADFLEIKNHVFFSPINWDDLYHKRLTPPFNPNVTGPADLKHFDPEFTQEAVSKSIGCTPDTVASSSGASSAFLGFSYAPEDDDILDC
smiles,measurement,setting,value
"COCc1ccc(C2CCC2)c(CNC(=O)Nc2c(C)c(-c3cnc(C)nc3)nn2-c2ccccc2)c1 [Example 10, 1-(2-cyclobutyl-5-(methoxymethyl)benzyl)-3-(4-methyl-3-(2-methylpyrimidin-5-yl)-1-phenyl-1H-pyrazol-5-yl)urea]",Avg POC DAPK3,[1],93.5 POC
same,Avg POC p70S6K,[2],111 POC
same,Avg POC Pim-2,[3],118 POC
same,Avg POC BLK_m,[4],97.5 POC
same,Avg POC NEK3,[5],97.5 POC
same,Avg POC JNK2alpha2,[6],81.5 POC
same,Avg POC PKCiota,[7],65.5 POC
same,Avg POC PTK6,[8],106.5 POC
same,Avg POC DMPK,[9],101.5 POC
same,Avg POC EphA3,[10],119 POC
same,Avg POC PRKG1beta,[11],107.5 POC
same,Avg POC PAK4,[12],102.5 POC
same,Avg POC JNK3,[13],74 POC
same,Avg POC Flt3,[14],54 POC
same,Avg POC Rsk1,[15],96.5 POC
same,Avg POC ALK4,[16],111.5 POC
same,Avg POC EGFR,[17],107.5 POC
same,Avg POC SIK,[18],104 POC
same,Avg POC ERK2,[19],104 POC
same,Avg POC TAO1,[20],111 POC
same,Avg POC SGK2,[21],80.5 POC
same,Avg POC IRAK1,[22],101 POC
same,Avg POC MSK2,[23],110.5 POC
same,Avg POC ULK3,[24],93.5 POC
same,Avg POC ALK,[25],102.5 POC
same,Avg POC EphA4,[26],105.5 POC
same,Avg POC CDK2/cyclinA,[27],98.5 POC
same,Avg POC CAMK2g,[28],101 POC
same,Avg POC Syk,[29],79.5 POC
same,Avg POC HIPK3,[30],95.5 POC
same,Avg POC PDGFRbeta,[31],106 POC
same,Avg POC Rsk2,[32],129.5 POC
same,Avg POC MRCKbeta,[33],108.5 POC
same,Avg POC NEK7,[34],110 POC
same,Avg POC BrSK2,[35],95 POC
same,Avg POC NEK6,[36],92.5 POC
same,Avg POC Plk3,[37],111 POC
same,Avg POC Flt4,[38],88 POC
same,Avg POC CSK,[39],132 POC
same,Avg POC MSSK1,[40],112 POC
same,Avg POC AKT1,[41],105 POC
"COCc1ccc(C(F)(F)F)c(CNC(=O)Nc2c(C)c(-c3cnn(C)c3)nn2-c2ccccc2)c1 [Example 33, 1-(1′,4-dimethyl-1-phenyl-1H,1′H-[3,4′-bipyrazol]-5-yl)-3-(5-(methoxymethyl)-2-(trifluoromethyl)benzyl)urea]",Avg POC DAPK3,[1],113 POC
same,Avg POC p70S6K,[2],377 POC
same,Avg POC Pim-2,[3],146 POC
same,Avg POC BLK_m,[4],119 POC
same,Avg POC NEK3,[5],115.5 POC
same,Avg POC JNK2alpha2,[6],89.5 POC
same,Avg POC PKCiota,[7],64 POC
same,Avg POC PTK6,[8],118.5 POC
same,Avg POC DMPK,[9],104 POC
same,Avg POC EphA3,[10],116.5 POC
same,Avg POC PRKG1beta,[11],121 POC
same,Avg POC PAK4,[12],108.5 POC
same,Avg POC JNK3,[13],135 POC
same,Avg POC Flt3,[14],78.5 POC
same,Avg POC Rsk1,[15],119.5 POC
same,Avg POC ALK4,[16],106 POC
same,Avg POC EGFR,[17],116.5 POC
same,Avg POC SIK,[18],139 POC
same,Avg POC ERK2,[19],117 POC
same,Avg POC TAO1,[20],118.5 POC
same,Avg POC SGK2,[21],208 POC
same,Avg POC IRAK1,[22],113 POC
same,Avg POC MSK2,[23],207.5 POC
same,Avg POC ULK3,[24],99.5 POC
same,Avg POC ALK,[25],116 POC
same,Avg POC EphA4,[26],120 POC
same,Avg POC CDK2/cyclinA,[27],103.5 POC
same,Avg POC CAMK2g,[28],112 POC
same,Avg POC Syk,[29],123.5 POC
same,Avg POC HIPK3,[30],102 POC
same,Avg POC PDGFRbeta,[31],166.5 POC
same,Avg POC Rsk2,[32],146 POC
same,Avg POC MRCKbeta,[33],116.5 POC
same,Avg POC NEK7,[34],116.5 POC
same,Avg POC BrSK2,[35],145.5 POC
same,Avg POC NEK6,[36],115.5 POC
same,Avg POC Plk3,[37],109.5 POC
same,Avg POC Flt4,[38],94 POC
same,Avg POC CSK,[39],127.5 POC
same,Avg POC MSSK1,[40],138.5 POC
same,Avg POC AKT1,[41],132 POC
